According to PMC12549564, “A thermo-sensitive peptide hydrogel loaded with paclitaxel and antimony nanosheets for synergistic photothermal-chemotherapeutic treatment of breast cancer” (Frontiers in Pharmacology, 2025):

Columns and labels:
Assay type in all cases: physicochemical
[1] = PTX release from hydrogel in vitro; details: hydrogel 20 mg/mL TSP-5, 2 mg/mL PTX, 0.6 mg/mL AM, PBS pH 7.4, 37 °C, 120 rpm, 7 days, HPLC, n = 3
Procedure: Gel sample (100 μL; 20 mg/mL TSP-5, 2 mg/mL PTX, 0.6 mg/mL AM) was prepared at 37 °C in a 1.5 mL EP tube. PBS (pH 7.4) was used to carefully wash the surface of the sample, and the cleaning solution was collected. The content of PTX not encapsulated was then determined by HPLC, and the encapsulation rate was calculated according to the formula: Encapsulation rate (%) = (PTX total –PTX in cleaning solution )/PTX total × 100%.
1 mL PBS (pH 7.4) was added as release medium, and the EP tube was placed in a thermostatic oscillator (120 rpm, 37 °C). All the release solution were carefully collected at different time points (0.5, 2, 4, 8, 12, 24, 48, 72, 96, 120, 144 and168 h), and the same volume of fresh release media was added. For the laser group, samples were irradiated (808 nm, 1 W/cm^2, 5 min) before each sampling. PTX release was quantified by HPLC.

[2] = Concentration study: solubility of TSP-5 in water; details: for Solubility of TSP-5: aqueous solution, pH 7.4, 25 °C
Procedure: Concentration study: At room temperature (25 °C), aqueous solutions of TSP-5 was prepared at concentrations of 15 mg/mL, 20 mg/mL, 25 mg/mL and 30 mg/mL, respectively, and adjusted to pH 7.4 with NaOH (0.5 M) and HCl (0.1 M). Gel formation was assessed via vial inversion.

[3] = Temperature study: gelation of TSP-5, vial inversion; details: for Gelation state: TSP-5 aqueous solution 20 mg/mL
Procedure: (§1) The gelation behavior of TSP-5 was evaluated at various concentrations, temperatures, and AM concentrations. Gel formation was assessed via vial inversion.
(§2) Temperature study: Aqueous solutions of TSP-5 (20 mg/mL) were prepared and then placed in water bath at 30 °C, 37 °C, 40 °C, 45 °C, 50 °C and 55 °C respectively to observe the gelatinization.

[4] = AM concentration study: gelation time of TSP-5 loaded with AM; details: TSP-5 20 mg/mL
Procedure: as §1
AM concentration study: Aqueous solutions of TSP-5 (20 mg/mL) was prepared at 25 °C and AM suspension of different concentrations (0.2, 0.4, 0.6, 0.8 and 1.0 mg/mL) was added. The sample was then placed in a water bath at 37 °C and 45 °C respectively to observe the gelatinization.

[5] = DLS particle size of TSP-5 hydrogel at different temperatures
[6] = Temperature study: gelation of TSP-5, vial inversion; design: key: L: liquid; IS: insoluble; SS: slightly soluble; details: TSP-5 20 mg/mL, water bath 30 °C
Procedure: as §1, §2

[7] = as above; design: key: L: liquid; VL: viscous liquid; SG: stable gel; UG: unstable gel; details: TSP-5 20 mg/mL, water bath 40 °C
Procedure: as §1, §2

[8] = TSP-5 20 mg/mL, water bath 37 °C

Compound: CC(=O)O[C@H]1C(=O)[C@@]2(C)[C@H]([C@H](OC(=O)c3ccccc3)[C@]3(O)C[C@H](OC(=O)[C@H](O)[C@@H](NC(=O)c4ccccc4)c4ccccc4)C(C)=C1C3(C)C)[C@]1(OC(C)=O)CO[C@@H]1C[C@@H]2O [PTX, Paclitaxel]
- Cumulative release of PTX from the hydrogel ([1]; with laser (808 nm, 1 W/cm^2, 5 min before each sampling)): 61.83%
- Cumulative release of PTX from the hydrogel ([1]; without laser): 42.81%

Compound: Ac-DDIIIVPGVGK-NH2 [TSP-5, Ac-DDIII-VPGVG-K-NH2]
- Solubility of TSP-5 ([2]; peptide 15 mg/mL): L (liquid)
- Solubility of TSP-5 ([2]; peptide 20 mg/mL): L (liquid)
- Solubility of TSP-5 ([2]; peptide 25 mg/mL): SS (slightly soluble)
- Solubility of TSP-5 ([2]; peptide 30 mg/mL): IS (insoluble)
- Hydrogel formation ([2]; pH 7.4, 15–30 mg/mL, 25 °C, vial inversion): no hydrogel formation was observed
- Gelation: time given for SG (stable gel) [3, 8]: 32 min
- Gelation: time given for VL (viscous liquid) [3, 8]: 10 min
- Gelation state ([3]; pH 7.4, 37 °C): stable hydrogel
- Gelation state ([3]; pH 7.4, 45 °C): completely viscous liquid
- Gelation time: SG (stable gel) ([4]; AM 0.2 mg/mL, 37 °C): 40 min
- Gelation time: VL (viscous liquid) ([4]; AM 0.2 mg/mL, 37 °C): 15 min
- Gelation time: UG (unstable gel) ([4]; AM 0.2 mg/mL, 45 °C): 39 min
- Gelation time: VL (viscous liquid) ([4]; AM 0.2 mg/mL, 45 °C): 3 min
- Gelation time: SG (stable gel) ([4]; AM 0.4 mg/mL, 37 °C): 33 min
- Gelation time: VL (viscous liquid) ([4]; AM 0.4 mg/mL, 37 °C): 14 min
- Gelation time: UG (unstable gel) ([4]; AM 0.4 mg/mL, 45 °C): 33 min
- Gelation time: VL (viscous liquid) ([4]; AM 0.4 mg/mL, 45 °C): 4 min
- Gelation time: SG (stable gel) ([4]; AM 0.6 mg/mL, 37 °C): 30 min
- Gelation time: VL (viscous liquid) ([4]; AM 0.6 mg/mL, 37 °C): 10 min
- Gelation time: UG (unstable gel) ([4]; AM 0.6 mg/mL, 45 °C): 30 min
- Gelation time: VL (viscous liquid) ([4]; AM 0.6 mg/mL, 45 °C): 2 min
- Gelation time: SG (stable gel) ([4]; AM 0.8 mg/mL, 37 °C): 30 min
- Gelation time: VL (viscous liquid) ([4]; AM 0.8 mg/mL, 37 °C): 9 min
- Gelation time: UG (unstable gel) ([4]; AM 0.8 mg/mL, 45 °C): 30 min
- Gelation time: VL (viscous liquid) ([4]; AM 0.8 mg/mL, 45 °C): 2 min
- Hydrodynamic size (DLS) ([5]; 37 °C): ~1,300 nm
- Hydrodynamic size (DLS) ([5]; 45 °C): ~350 nm
- Gelation state [6]: L
- Gelation state [7]: SG
